Results on 4 molecules are retold here after patent US4692443A, “3-bicyclicpyridinium-methyl cephalosporins” (Eli Lilly and Company, priority 1984, dated 1987).

In brackets after ≈: the same amount, converted by molar mass.

Holding throughout (type): cell-based
In one assay the test system is Staph. aureus X1.1. Kind of assay: standard in vitro agar dilution assay (MIC). The settings on record: Staphylococcus aureus; Staph. aureus strain X1.1; read-out: Agar Dilution MIC.
A further assay concerns Staph. aureus V41. Kind of assay: standard in vitro agar dilution assay (MIC). The settings on record: Staphylococcus aureus; Staph. aureus strain V41; read-out: Agar Dilution MIC. Background: In agar dilution the substance is mixed into plates at graded concentrations.
The test system of the next assay is Staph. aureus X400. The assay is described as follows: standard in vitro agar dilution assay (MIC). The note with it: Staphylococcus aureus; Staph. aureus strain X400.
The subject of a further assay is Staph. aureus S13E. Kind of assay: microbe, parasite or virus in culture. The settings on record: Staphylococcus aureus, read-out: Agar Dilution MIC.
Another assay relates to Staph. epi EPI1. Kind of assay: standard in vitro agar dilution assay (MIC). The settings on record: Staph. epi strain EPI1.
A further assay has as its system Staph. epi 222. Kind of assay: standard in vitro agar dilution assay (MIC). The note with it: Staph. epi strain 222.
A further assay relates to Strep. A C203. Kind of assay: standard in vitro agar dilution assay (MIC). The settings on record: Strep. A strain C203.
The next assay concerns Strep. PN PARK. The assay is described as follows: standard in vitro agar dilution assay (MIC). The settings on record: Strep. PN strain PARK.
Another assay deals with Strep. D X66. Kind of assay: standard in vitro agar dilution assay (MIC). The note with it: Strep. D strain X66.
The next assay relates to Strep. D 9960. Kind of assay: standard in vitro agar dilution assay (MIC). The note with it: Strep. D strain 9960.
The next assay deals with E. coli N10. Kind of assay: standard in vitro agar dilution assay (MIC). The note with it: Escherichia coli; E. coli strain N10; read-out: Agar Dilution MIC.
The subject of another assay is E. coli EC14. Kind of assay: standard in vitro agar dilution assay (MIC). The note with it: Escherichia coli; E. coli strain EC14; read-out: Agar Dilution MIC.
The next assay deals with E. coli TEM. The assay is described as follows: standard in vitro agar dilution assay (MIC). The settings on record: Escherichia coli; E. coli strain TEM; read-out: Agar Dilution MIC.
The subject of a further assay is Klebsiella X26. Kind of assay: standard in vitro agar dilution assay (MIC). The settings on record: Klebsiella strain X26; read-out: Agar Dilution MIC.
The next assay deals with Klebsiella KAE. The assay is described as follows: standard in vitro agar dilution assay (MIC). The note with it: Klebsiella strain KAE; read-out: Agar Dilution MIC.
A further assay has as its system Klebsiella X68. Kind of assay: standard in vitro agar dilution assay (MIC). The settings on record: Klebsiella strain X68; read-out: Agar Dilution MIC.
The test system of assay [1] is Enterobacter aerogenes C32. The assay is described as follows: standard in vitro agar dilution assay (MIC). The note with it: Klebsiella aerogenes; Enterobacter aerogenes strain C32; read-out: Agar Dilution MIC.
A further assay has as its system Salmonella X514. Kind of assay: standard in vitro agar dilution assay (MIC). The settings on record: Salmonella strain X514; read-out: Agar Dilution MIC.
A further assay concerns Pseudomonas X528. Kind of assay: standard in vitro agar dilution assay (MIC). The note with it: Pseudomonas strain X528. An excerpt: The antibacterial activity of several representative compounds of the invention has been evaluated in standard in vitro agar dilution assays. The following Table presents typical minimum inhibitory concentrations (MIC's) in μg /ml for exemplary compounds when evaluated against typical Gram + and Gram - microorganism.

The subject of another assay is Pseudomonas X239. The assay is described as follows: standard in vitro agar dilution assay (MIC). The note with it: Pseudomonas strain X239.
The test system of a further assay is H. influ. 76. Kind of assay: standard in vitro agar dilution assay (MIC). The settings on record: H. influ. strain 76; read-out: Agar Dilution MIC.
A further assay deals with H. influ. C.L. The assay is described as follows: standard in vitro agar dilution assay (MIC). The settings on record: H. influ. strain C.L.; read-out: Agar Dilution MIC.
The next assay deals with Serratia X99. The assay is described as follows: standard in vitro agar dilution assay (MIC). The settings on record: Serratia strain X99; read-out: Agar Dilution MIC.

As to `CO/N=C(\C(=O)NC1C(=O)N2C(C(=O)[O-])=C(C[n+]3ccc4c(c3)nc(C)n4C)CSC12)c1csc(N)n1` (stereo not drawn) [Example 6, syn-7-[2-(2-aminothiazol-4-yl)-2-methoxyiminoacetamido]-3-(1,2-dimethyl-1H-imidazolo[4,5-c]pyridinium-5-ylmethyl)-3-cephem-4-carboxylate], the MIC stood at 2 µg/mL (≈ 3.69 µM) with Staph. aureus X1.1; 16 µg/mL (≈ 29.5 µM) in the assay on Staph. aureus V41; 32 µg/mL (≈ 59 µM) against Staph. aureus X400; 8 µg/mL (≈ 14.7 µM) with Staph. aureus S13E; 2 µg/mL (≈ 3.69 µM) with Staph. epi EPI1; 1 µg/mL (≈ 1.84 µM) against Staph. epi 222. Further, the MIC against Strep. A C203 was under 8 ng/mL; in the assay on Strep. PN PARK, under 8 ng/mL; with Strep. D X66 it was over 128 µg/mL; in the assay on Strep. D 9960, 4 µg/mL (≈ 7.37 µM); in the assay on E. coli N10 it was 0.03 µg/mL (≈ 0.0553 µM); in the assay with E. coli EC14, under 8 ng/mL. In addition, the MIC in the assay with E. coli TEM was under 8 ng/mL; in the assay with Klebsiella X26, under 8 ng/mL; with Klebsiella KAE it was 2 µg/mL (≈ 3.69 µM); with Klebsiella X68, 0.03 µg/mL (≈ 0.0553 µM); in assay [1] it was 0.03 µg/mL (≈ 0.0553 µM); in the assay with Salmonella X514 it was 0.03 µg/mL (≈ 0.0553 µM). For the same molecule, the MIC against Pseudomonas X528 and in the assay on Pseudomonas X239 was 4 µg/mL (≈ 7.37 µM) in each case.

In the case of `CO/N=C(\C(=O)NC1C(=O)N2C(C(=O)[O-])=C(C[n+]3ccc4nc(C)n(C)c4c3)CSC12)c1csc(N)n1` (stereo not drawn) [Example 7, syn-7-[2-(2-aminothiazol-4-yl)-2-methoxyiminoacetamido]-3-(2,3-dimethyl-3H-imidazolo[4,5-c]pyridinium-5-ylmethyl)-3-cephem-4-carboxylate], the MIC was 2 µg/mL (≈ 3.69 µM) in the assay on Staph. aureus X1.1; 128 µg/mL (≈ 236 µM) in the assay on Staph. aureus X400; 4 µg/mL (≈ 7.37 µM) against Staph. epi EPI1; 2 µg/mL (≈ 3.69 µM) against Staph. epi 222; 15 ng/mL (≈ 0.0276 µM) in the assay with Strep. A C203; over 128 µg/mL against Strep. D X66. For the same molecule, the MIC in the assay with Strep. D 9960 is 4 µg/mL (≈ 7.37 µM); with H. influ. 76, 0.03 µg/mL (≈ 0.0553 µM); in the assay on E. coli N10 it was 0.03 µg/mL (≈ 0.0553 µM); with E. coli EC14 it was 15 ng/mL (≈ 0.0276 µM); in the assay with E. coli TEM it was 15 ng/mL (≈ 0.0276 µM); in the assay with Klebsiella X26, 15 ng/mL (≈ 0.0276 µM). The MIC in the assay with Klebsiella KAE came out at 2 µg/mL (≈ 3.69 µM); in the assay with Klebsiella X68 it was 0.03 µg/mL (≈ 0.0553 µM).

With `CO/N=C(\C(=O)NC1C(=O)N2C(C(=O)[O-])=C(C[n+]3ccc4[nH]cnc4c3)CSC12)c1csc(N)n1` (stereo not drawn) [Example 2, syn-7-[2-(2-Aminotiazol-4-yl)-2-methoxyiminoacetamido]-3-(1H-imidazolo[4,5-c]pyridinium-5-ylmethyl)-3-cephem-4-carboxylate], the MIC in the assay with Staph. aureus X1.1 is 1 µg/mL (≈ 1.94 µM); in the assay with Staph. aureus V41 it was 8 µg/mL (≈ 15.5 µM); against Staph. aureus X400 it was 64 µg/mL (≈ 124 µM); in the assay on Staph. aureus S13E it was 8 µg/mL (≈ 15.5 µM); with Staph. epi EPI1 it was 4 µg/mL (≈ 7.77 µM); against Staph. epi 222, 1 µg/mL (≈ 1.94 µM). For the same molecule, the MIC was under 8 ng/mL with Strep. A C203; under 8 ng/mL in the assay with Strep. PN PARK; 2 µg/mL (≈ 3.89 µM) with Strep. D 9960; 0.015 µg/mL (≈ 0.0292 µM) in the assay with H. influ. C.L.; 0.015 µg/mL (≈ 0.0292 µM) in the assay with H. influ. 76; 0.015 µg/mL (≈ 0.0292 µM) with E. coli N10. Moreover, the MIC was under 8 ng/mL with E. coli EC14; under 8 ng/mL with E. coli TEM; under 8 ng/mL with Klebsiella X26; 4 µg/mL (≈ 7.77 µM) in the assay on Klebsiella KAE; under 0.008 µg/mL with Klebsiella X68; 0.03 µg/mL (≈ 0.0583 µM) in assay [1]. For the same molecule, the MIC in the assay on Salmonella X514 is under 0.008 µg/mL; with Pseudomonas X528, 1 µg/mL (≈ 1.94 µM); in the assay on Pseudomonas X239, 2 µg/mL (≈ 3.89 µM); with Serratia X99, 0.015 µg/mL (≈ 0.0292 µM).

Turning to `CO/N=C(\C(=O)NC1C(=O)N2C(C(=O)[O-])=C(C[n+]3ccc4ncn(C)c4c3)CSC12)c1csc(N)n1` (stereo not drawn) [Example 3, syn-7-[2-(2-Aminothiazol-4-yl)-2-methoxyiminoacetamido]-3-(3-methyl-3H-imidazolo[4,5-c]pyridinium-5-ylmethyl)-3-cephem-4-carboxylate], the MIC was 1 µg/mL (≈ 1.89 µM) in the assay with Staph. aureus X1.1; 4 µg/mL (≈ 7.57 µM) with Staph. aureus V41; 64 µg/mL (≈ 121 µM) against Staph. aureus X400; 4 µg/mL (≈ 7.57 µM) in the assay on Staph. aureus S13E; 2 µg/mL (≈ 3.78 µM) in the assay on Staph. epi EPI1; 1 µg/mL (≈ 1.89 µM) in the assay with Staph. epi 222. The MIC with Strep. A C203 is under 8 ng/mL; in the assay on Strep. PN PARK, under 8 ng/mL; against Strep. D X66, over 128 µg/mL; in the assay with Strep. D 9960 it was 4 µg/mL (≈ 7.57 µM); in the assay on E. coli EC14 it was under 8 ng/mL; in the assay with E. coli TEM, under 8 ng/mL. Moreover, the MIC in the assay on Klebsiella X26 was under 8 ng/mL; with Klebsiella KAE, 4 µg/mL (≈ 7.57 µM); with Klebsiella X68, 0.03 µg/mL (≈ 0.0568 µM); with Salmonella X514, under 0.008 µg/mL; against Pseudomonas X528, 1 µg/mL (≈ 1.89 µM); with Pseudomonas X239, 2 µg/mL (≈ 3.78 µM).
